# Test results from PMC6522510 (Nature Communications, 2019).
# Structures can show the parent of a compound that is named as a salt. Where two headings read alike, the source gives them in different places.
# Experiments:
# Set-up in all cases: species or system AML cell lines (8); Primary HTS, single concentration about 10 uM, Cell Titer Glo viability; log10 luminescence, per cent inhibition relative to cycloheximide control
# Details in all cases: 72 h, relative to cycloheximide control, log10 luminescence, inhibitor
# [1] = test system: U937
# [2] = test system: CMS
# [3] = test system: CHRF288-11
# [4] = test system: CMK
# [5] = test system: MOLM-13
# [6] = test system: M07e
# [7] = test system: ML-2
# [8] = test system: MV4-11
Structure (SMILES),"U937 %inh ([1]; U937 %inh, 10 µM) [%]","CMS %inh ([2]; CMS %inh, 10 µM) [%]","CHRF288-11 %inh ([3]; CHRF288-11 %inh, 10 µM) [%]","CMK %inh ([4]; CMK %inh, 10 µM) [%]","MOLM-13 %inh ([5]; MOLM-13 %inh, 10 µM) [%]","M07e %inh ([6]; M07e %inh, 10 µM) [%]","ML-2 %inh ([7]; ML-2 %inh, 10 µM) [%]","MV4-11 %inh ([8]; MV4-11 %inh, 10 µM) [%]",U937 %inh [1] [%],CMS %inh [2] [%],CHRF288-11 %inh [3] [%],CMK %inh [4] [%],MOLM-13 %inh [5] [%],M07e %inh [6] [%],ML-2 %inh [7] [%],MV4-11 %inh [8] [%]
"CC1/C=C/C=C/C=C/C=C/C=C/C=C/C=C/C(OC2O[C@H](C)[C@@H](O)[C@H](N)[C@@H]2O)CC(O)C(C(=O)O)C(O)CC(=O)CC(O)CC(O)CC(O)CC(=O)CCCC(=O)CC(=O)OC1C(C)CC(C)C(O)CC(=O)c1ccc(N)cc1 (single isomer, unassigned) [SJ000565161-2, CANDICIDIN]",-1.702,0.8019,84.68,-1.968,0.5936,-1.61,-0.08515,0.2404,,,,,,,,
"O=c1ncnc2n([C@H]3O[C@@H](CO)[C@H](O)[C@@H]3O)[nH]cc1-2 (stereo in doubt) [SJ000562682-1, ALLOPURINOL RIBOSIDE]",,,,,,,,,0.8426,-1.89,1.868,1.077,4.507,-1.058,0.3274,0.9814
"CO[C@H]1/C=C/O[C@@]2(C)Oc3c(C)c(O)c4c(O)c(c(/C=N/N5CCN(C)CC5)c(O)c4c3C2=O)NC(=O)/C(C)=C\C=C\[C@H](C)[C@H](O)[C@@H](C)[C@@H](O)[C@@H](C)[C@H](OC(C)=O)[C@@H]1C [SJ000000850-5, RIFAMPIN | RIFAMPICIN]",3.295,9.631,0.3238,-4.011,-1.813,0.4502,5.116,3.37,,,,,,,,
"CO[C@H]1/C=C/O[C@@]2(C)Oc3c(C)c(O)c4c(O)c(c(/C=N/N5CCN(C)CC5)c(O)c4c3C2=O)NC(=O)/C(C)=C\C=C\[C@H](C)[C@H](O)[C@@H](C)[C@@H](O)[C@@H](C)[C@H](OC(C)=O)[C@@H]1C [SJ000000850-6, RIFAMPIN | RIFAMPICIN]",3.577,11.96,0.456,-0.3986,5.052,0.5367,3.762,5.189,,,,,,,,
"CO[C@H]1/C=C/O[C@@]2(C)Oc3c(C)c(O)c4c(O)c(c(/C=N/N5CCN(C)CC5)c(O)c4c3C2=O)NC(=O)/C(C)=C\C=C\[C@H](C)[C@H](O)[C@@H](C)[C@@H](O)[C@@H](C)[C@H](OC(C)=O)[C@@H]1C [SJ000000850-7, RIFAMPIN | RIFAMPICIN]",2.422,16.96,22.26,0.4994,4.02,2.856,2.607,6.955,,,,,,,,
"COc1cc2nc(N3CCN(C(=O)C4COc5ccccc5O4)CC3)nc(N)c2cc1OC (stereo not drawn) [SJ000113084-6, DOXAZOSIN MESYLATE]",,,,,,,,,1.071,0.401,36.53,9.497,9.986,-1.557,-0.964,-1.195
"N#Cc1c(NC(=O)c2ccccc2F)sc2c1CCCC2 [SJ000121296-2, R15619/66/1]",,,,,,,,,21.81,2.048,1.937,11.25,0.9257,15.03,8,-1.785
"CC(=O)[C@H]1CC[C@H]2[C@@H]3CC=C4C[C@@H](O)CC[C@]4(C)[C@H]3CC[C@]12C [SJ000281777-6, PREGNENOLONE]",,,,,,,,,3.219,6.885,0.2511,-1.238,2.085,1.706,0.5574,6.672
"O=c1oc2ccccc2c(O)c1Cc1c(O)c2ccccc2oc1=O [SJ000285189-5, DICUMAROL]",-0.6,-1.99,8.973,-3.554,-3.706,-2.456,-1.314,-2.098,,,,,,,,
"O=c1oc2ccccc2c(O)c1Cc1c(O)c2ccccc2oc1=O [SJ000285189-6, DICUMAROL]",-0.6405,-1.661,3.41,-0.9245,0.9251,0.4208,-0.8259,0.4793,,,,,,,,
"C[C@H]1O[C@@H](O[C@H]2[C@@H](O)C[C@H](O[C@H]3[C@@H](O)C[C@H](O[C@H]4CC[C@@]5(C)[C@H](CC[C@@H]6[C@@H]5CC[C@]5(C)[C@@H](C7=CC(=O)OC7)CC[C@]65O)C4)O[C@@H]3C)O[C@@H]2C)C[C@H](O)[C@@H]1O [SJ000285233-4, DIGITOXIN]",77.98,96.1,102.9,102,81.14,114.3,57.88,82.27,,,,,,,,
"C[C@H]1O[C@@H](O[C@H]2[C@@H](O)C[C@H](O[C@H]3[C@@H](O)C[C@H](O[C@H]4CC[C@@]5(C)[C@H](CC[C@@H]6[C@@H]5CC[C@]5(C)[C@@H](C7=CC(=O)OC7)CC[C@]65O)C4)O[C@@H]3C)O[C@@H]2C)C[C@H](O)[C@@H]1O [SJ000285233-5, DIGITOXIN]",78.87,97.86,112.4,108.7,87.24,112.2,58.4,76.58,,,,,,,,
"Cn1cnc([N+](=O)[O-])c1Sc1ncnc2[nH]cnc12 [SJ000285241-8, AZATHIOPRINE]",,,,,,,,,-0.6587,0.5483,14.99,49.74,36.41,7.374,14.66,14.19
"Cc1ccc2cc3c(ccc4ccccc43)c3c2c1CC3 [SJ000285253-3, 3-METHYLCHOLANTHRENE]",,,,,,,,,0.01725,3.804,5.022,1.143,2.389,0.9432,4.978,4.129
"Oc1c(Cl)cc(Cl)c(Cl)c1Cc1c(O)c(Cl)cc(Cl)c1Cl [SJ000285273-4, HEXACHLOROPHENE]",,,,,,,,,24.03,32.47,23.59,117.7,75.15,10.84,15.89,7.526
"O=C(O)P(=O)(O)O [SJ000285291-3, FOSCARNET SODIUM]",,,,,,,,,-2.189,0.8709,-2.096,3.052,3.283,-4.14,-0.9621,0.7745
"CN[C@@H]1[C@H](O[C@H]2[C@H](O[C@H]3[C@H](O)[C@@H](O)[C@H](N=C(N)N)[C@@H](O)[C@@H]3N=C(N)N)O[C@@H](C)[C@]2(O)C=O)O[C@@H](CO)[C@H](O)[C@H]1O [SJ000285297-4, STREPTOMYCIN SULFATE]",-1.404,-1.268,6.76,3.295,1.953,-4.718,-3.476,-1.642,,,,,,,,
"CN[C@@H]1[C@H](O[C@H]2[C@H](O[C@H]3[C@H](O)[C@@H](O)[C@H](N=C(N)N)[C@@H](O)[C@@H]3N=C(N)N)O[C@@H](C)[C@]2(O)C=O)O[C@@H](CO)[C@H](O)[C@H]1O [SJ000285297-5, STREPTOMYCIN SULFATE]",-2.931,-4.665,-4.766,-3.106,2.09,1.975,1.375,1.701,,,,,,,,
